Entries after “also recorded” stand apart in the source; their conditions may differ. Where no end group is shown, it is not given here.
T1: CFP-RapA (Bacillus subtilis 168, UniProt Q00828 1-378)
T1 construct: RapA, Rap-family RRNPP-type receptor (response regulator aspartate phosphatase A) of Bacillus subtilis; rapA amplified from B. subtilis 168 genomic DNA; ecfp(Bs) is joined to the N-terminus of RapA by a GSGGV linker; also called RapA receptor; RapA-CFP; source: B. subtilis reporter strain BIB625 (ΔrapA-phrA Δspo0F), IPTG-induced from the amyE locus, in living cells; not shown: eCFP(Bs), …
T1 sequence (looked up): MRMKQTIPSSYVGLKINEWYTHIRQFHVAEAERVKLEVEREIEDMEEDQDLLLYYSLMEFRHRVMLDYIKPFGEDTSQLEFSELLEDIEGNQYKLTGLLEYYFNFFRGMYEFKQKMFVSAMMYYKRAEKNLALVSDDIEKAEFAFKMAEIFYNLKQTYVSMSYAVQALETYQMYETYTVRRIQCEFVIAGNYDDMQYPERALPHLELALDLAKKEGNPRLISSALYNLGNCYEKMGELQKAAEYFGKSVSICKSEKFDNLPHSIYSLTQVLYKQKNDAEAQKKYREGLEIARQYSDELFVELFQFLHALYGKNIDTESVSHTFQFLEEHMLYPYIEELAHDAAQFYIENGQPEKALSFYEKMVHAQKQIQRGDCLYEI

B1: PhrA (peptide)
peptide: ARNQT
notes: PhrA, the mature linear pentapeptide derived from the phrA gene product of Bacillus subtilis; also called PhrA pentapeptide; ARNQT; source: synthetic peptide (Peptides and Elephant, purity >95%)

Key:
[1] = PhrA stability in cell-free supernatant (Supplementary Fig. 5B); type: in vitro ADME
Protocol: Bioassay and supernatant analysis: The supernatants were collected after centrifugation of stimulated cells. Aliquots (VS = 450 µl) of the cell-free supernatants were mixed with 50 µl of a 10× suspension of fresh unstimulated reporter cells, for tB = 5 min + 1 min (time for incubation plus centrifugation) at room temperature and then processed as described above. To detect extracellular PhrA in S7_50 cultures, wild-type cells (BIB224) were grown for 5 h to an OD600 nn ~ 1.6 and pelleted by centrifugation. The supernatants were then filtered through a 0.2-µm PES membrane, and analyzed as described above with the following modification. To increase the sensitivity of the bioassay, the volume of analyzed supernatant and the incubation time were increased to VS = 1950 µl and tB = 20 min + 1 min, respectively.

[2] = test system: reporter cells BIB625 (RapA-Spo0F FRET); test: Bioassay of supernatants: PhrA depletion from medium measured with fresh reporter cells; type: cell-based, Bacillus subtilis; conditions: 10 nM PhrA, within a few minutes
Protocol: Induction of FRET reporters: Reporter cells were inoculated from a single colony into 5 ml of LB medium with antibiotics and incubated on a rotary shaker (Infors HT Multitron) at 180 rpm and 37 °C for 7 h. Cells were resuspended at OD600 nm = 0.003 in 5 ml of S7_50 medium and incubated for 16 h overnight. Expression of the fusion proteins was induced by resuspending the reporter cells at an OD600 nm =0.04 in 10 ml of fresh S7_50 supplemented with 100 µM IPTG in a 100-ml flask. When applicable, protein expression from a xylose-inducible promoter was induced by adding xylose at a final concentration of 1% (w/v). Cells were grown to a final OD600 nm ~1.6.
Bioassay and supernatant analysis: The supernatants were collected after centrifugation of stimulated cells. […] The supernatants were then filtered through a 0.2-µm PES membrane, and analyzed as described above with the following modification. To increase the sensitivity of the bioassay, the volume of analyzed supernatant and the incubation time were increased to VS = 1950 µl and tB = 20 min + 1 min, respectively. […]
The FRET efficiency was determined using the formula:5 FRET=CFPpost−CFPpre/CFPpost⋅100%, where CFPpre and CFPpost denote the emission levels before and after acceptor photobleaching, respectively. […] CFPpre is then evaluated at the end of the bleaching period by extrapolating the linear fit accordingly (see Fig. 2b). […]

CFP-RapA = molecular target: T1, CFP-RapA; test: FRET or BRET; loss of CFP-RapA/Spo0F-YFP FRET in B. subtilis reporter cells against PhrA; EC50 is the intracellular PhrA concentration of the half-maximal response, inferred by fitting all data of Figs. 4 and 5 to the pump-probe model (Hill function); conditions: one partner purified

Row | Molecule | time for which bioassay FRET remained unchanged (stability) ([1]; 10 nM PhrA in cell-free supernatant, room temperature, bioassay read-out, ne = 3) | bioassay FRET during incubation in cell-free supernatant ([1]; 10 nM PhrA in cell-free supernatant, room temperature, up to at least 8 h, ne = 3) | extracellular stability ([1]; 10 nM PhrA, cell-free supernatant) | extracellular PhrA level after stimulation [2] | EC50 (CFP-RapA) [µM]
1 | ARNQT [PhrA] | at least 8 h | ~ 7% | stable in cell-free supernatants; also recorded: stable for hours | below the detection limit of the bioassay | 
2 | B1 |  |  |  |  | 38

From publication PMC7055314, “Ratiometric population sensing by a pump-probe signaling system in Bacillus subtilis” (Nature Communications, 2020)
